Experimental data from patent publication US12251459B2, “Compositions, formulations, and methods for hair treatment” (Oddity Labs, LLC, priority 2022, dated 2025).

Legend:
[1] = system: follicle dermal papilla cells; assay: Reactive oxygen species (ROS) activity in follicle dermal papilla cells; format: cell-based; conditions: 5 μg/mL, 24 hr, relative to vehicle control (0.1% v/v DMSO)
Protocol: Normalized reactive oxygen species (ROS) activity in follicle dermal papilla cells were analyzed after treatment with 5 μg/mL example compounds relative to vehicle control (0.1% v/v DMSO) after 24 hr. The increase in ROS levels is harmful to cell homeostasis, structures, and functions and results in oxidative stress.

[2] = system: human hair follicle dermal papilla cells (hFDPC); assay: Human follicle dermal papilla cells (hFDPC) proliferation assay; format: cell-based; conditions: hFDPCs supplemented with BIO, BMP-2 and FGFβ
From the text: In Table 8, A represents less than 20% of increased proliferation of hFDPCs, B represents 20-40%, and C represents larger than 40% of increased proliferation of hFDPCs.

TK.6 lymphoblasts = assay: TK.6 micronucleus assay; format: cell-based
Protocol: (§1) The safety/toxicology profiles of a compound or salt of the present disclosure was evaluated via a series of in vitro genotoxicity assays, including the SOS-chromotest to determine bacterial genotoxicity, and the TK.6 micronucleus assay to determine chromosomal damage and forward mutations. Standard reactive oxygen species (ROS) and caspase 3/7 assay were conducted to determine general cellular toxicity. Moreover, a series of sensitization tests were conducted to predict any potential skin sensitivity. These include the direct peptide reactivity assay to evaluate haptenization, the KeratinoSens reporter assay to determine potential sensitivity via the activation of a cytoprotective pathway, and an immunological assay using human immature monocyte-derived dendritic cells to evaluate any potential immunogenicity.
TK.6 lymphoblasts are a well-studied cell line commonly used for gene mutation analyses. They are heterozygous for the thymidine kinase gene (TK) and enable the detection of forward mutations and chromosomal damage, which manifests as micronuclei and are detectable via flow cytometry.
TK.6 cells were dosed with the example compounds or a vehicle control (0.1% v/v DMSO) and cultured with or without S9 metabolic activation for 24 hr. […] Methyl methanesulfonate, a known genotoxic, alkylating agent was used as a positive control for micronuclei detection.
The micronucleus assay was also performed to determine if the compounds are genotoxic by evaluating the presence of micronuclei. […] In combination. […] I-17 elicited genotoxicity at >3.125 μg/mL.

HepG2 cells = assay: Caspase 3/7 activity in HepG2 cells; format: cell-based; conditions: HepG2, >2-log concentration range, versus % v/v-matched DMSO
Protocol: (§2) Cells were treated with either the example compounds or vehicle control containing correspondingly % v/v-matched amounts of DMSO spanning a >2-log concentration range. Data represents mean±s.d. and representative of at least 2 experimental replicates.
as §2, with “HepG2 cells are an immortalized liver cell line commonly used to study apoptosis induced by small molecules. Cells” for “Cells”

Nrf2-ARE pathway = assay: KeratinoSens Nrf2-ARE reporter assay (ARE-luciferase); format: cell-based; conditions: cinnamic aldehyde as known sensitizing compound
Protocol: as §1
The Nrf2-ARE pathway is a master regulator of cytoprotective responses to oxidative stress, and is an early indicator of skin sensitization. Nrf2 (nuclear factor erythroid 2-related factor) is a transcription factor that binds to antioxidant responsive elements (ARE). By fusing ARE to the light-producing luciferase gene, a KeratinoSens Nrf2-ARE reporter assay was performed whereby luciferase signal is directly correlated to Nrf2-ARE pathway activation. Normalized ARE-luciferase activity was measured using a known sensitizing compound (cinnamic aldehyde) and example compounds.

bacteria = assay: SOS chromotest (bacteria-based genotoxicity test, β-galactosidase activity); format: cell-based; conditions: varying concentrations; 4-NQ as known genotoxin
Protocol: The SOS chromotest is a well-established bacteria-based test for genotoxicity.
as §1

[3] = Clinical consumer perception study; format: in vivo, human
Protocol: The clinical test was performed by Eurofins|CRL, Inc. The test followed established, standardized procedures for clinical testing designed to ensure the well-being of clinical study subjects and the generation of reliable study data. Subjects were female and ranged in age from 27-65 years. Subjects used a simple, water-based formula containing an example compound, VII-3 (at 0.02% v/v) every 2 days in the morning or night on dry or towel-dried hair. Approximately 2 mL was applied directly to the hairline. No randomization was required for the study and subjects were blinded to the name of the test material.
Photographs of subjects' hair were taken 6 weeks after the treatment with the representative compounds (FIG. 6). Subjects were female and ranged in age from 27-65 years. Subjects used a simple, water-based formula containing an example compound VII-3 (at 0.02% v/v) every 2 days in the morning or night on dry or towel-dried hair. Approximately 2 mL was applied directly to the hairline. No randomization was required for the study and subjects were blinded to the name of the test material. FIG. 6. highlights specific regions of the included participants' scalps, juxtaposing pictures taken before and after the study. Based on clinical surveys, 97% of women reported an improvement in their hair's appearance while 82% reported increased hair growth and thickness.
After the conclusion of the study, subjects completed a Consumer perception questionnaire. Table 24 includes percentages of each response for the corresponding prompt in the questionnaire. The specific response choice is specified within the parentheses below the percentage.

[4] = system: Human follicle papilla cells; assay: Functional stability: follicle papilla cell proliferation after pH and temperature pre-treatment of the compound; format: cell-based; conditions: prepared in DMSO, DMI or 1:1 DMI/ethanol, diluted in pH-adjusted water, varying temperatures, 7 days; cells dosed 5 μg/mL, 48 hr
Protocol: Compound VII-3 was prepared in various solvents (DMSO; dimethyl sulfoxide, DMI; dimethyl isosorbide, or a 1:1 mixture of dimethyl isosorbide and ethanol), the diluted in pH-adjusted water and left at varying temperatures for 7 days. Human follicle papilla cells were dosed at 5 μg/mL with the example compound and further supplemented with 6-bromoindirubin-39-Oxime (BIO), recombinant bone morphogenetic protein-2 (BMP-2), and basic fibroblast growth factor (FGFβ), whose combination was previously found to preserve in vivo dermal papilla gene signatures. Normalized proliferation follicle papilla cell proliferation was analyzed after 48 hr following the treatment with the example compound pre-treated across a range of pH conditions (FIG. 7A) and temperature conditions (FIG. 7B). Data represents mean±s.d. and representative of n=2 donors.

[5] = response: I haven't noticed a change

C=CCc1cc(/C=C2\C(=O)NC(=S)N(c3ccccc3OC)C2=O)cc(OCC)c1O [I-18]
Normalized reactive oxygen species (ROS) activity [1]: higher than other compounds | Percent Increase Proliferation of hFDPCs (%) [2]: B (B represents 20-40%)

COC(=O)c1c(S(C)(=O)=O)[nH]c(-c2ccccc2)nc1=O [VII-1, 5- Pyrimidinecarboxylic acid, 1,4-dihydro-6-(methylsulfonyl)-4-oxo-2-phenyl-, methyl ester]
micronuclei formation / genotoxic effect in TK.6 cells (TK.6 lymphoblasts): do not promote any micronuclei formation | Normalized caspase 3/7 activity (HepG2 cells): did not exhibit any caspase activation | sensitizing potential (normalized ARE-luciferase activity) (Nrf2-ARE pathway): exhibited sensitizing potential | Percent Increase Proliferation of hFDPCs (%) [2]: C (C represents larger than 40% of increased proliferation of hFDPCs) | genotoxic effects in SOS chromotest (normalized β-galactosidase activity) (bacteria): did not exhibit any genotoxic effects

C=CCc1cc(/C=C2\C(=O)NC(=S)N(c3ccc(OC)cc3)C2=O)cc(OC)c1O [I-17]
concentration at which genotoxicity was elicited in TK.6 micronuclei assay (TK.6 lymphoblasts; 24 hr): > 3.125 µg/mL | Normalized caspase 3/7 activity (HepG2 cells): significant caspase-3/7 activation at the highest concentration | Percent Increase Proliferation of hFDPCs (%) [2]: C (C represents larger than 40% of increased proliferation of hFDPCs)

CCC(=O)N1CCN(c2nnc(-c3ccc(C)cc3)c3ccccc23)CC1 [II-4, 1-Propanone, 1-[4-[4-(4-methylphenyl)-1-phthalazinyl]-1-piperazinyl]-]
micronuclei formation / genotoxic effect in TK.6 cells (TK.6 lymphoblasts): do not promote any micronuclei formation | Normalized caspase 3/7 activity (HepG2 cells): did not exhibit any caspase activation | Percent Increase Proliferation of hFDPCs (%) [2]: B (B represents 20-40%) | genotoxic effects in SOS chromotest (normalized β-galactosidase activity) (bacteria): did not exhibit any genotoxic effects

CSc1nc(-c2ccco2)nn1S(C)(=O)=O [VII-3, 1H-1,2,4-Triazole, 3-(2-furanyl)-1-(methylsulfonyl)-5-(methylthio)-]
Normalized caspase 3/7 activity (HepG2 cells): did not exhibit any caspase activation | Since the beginning of the study, I have noticed a decrease of the number of hairs lost in the shower. ([3]; response: Agree): 53.1% | Since the start of the study, I can see more hair in the areas where the serum was applied. ([3]; response: Agree): 53.1% | Since the beginning of the study, I have noticed a decrease of the number of hairs lost in the shower. ([3]; response: Disagree): 6.3% | Since the start of the study, I can see more hair in the areas where the serum was applied. ([3]; response: Disagree): 3.1% | Because of the treatment I have received since the start of the study, the appearance of my hair is: ([3]; response: Fuller): 56.3% | Since the beginning of the study, I have noticed a decrease of the number of hairs lost in the shower. [3, 5]: 21.9% | Since the start of the study, I can see more hair in the areas where the serum was applied. [3, 5]: 31.3% | Since the start of the study, how effective do you think the treatment has been in increasing your hair growth/thickness? ([3]; response: Not effective at all): 0% | Since the start of the study, how effective do you think the treatment has been in slowing down your hair loss? ([3]; response: Not effective at all): 3.1% | Since the start of the study, how effective do you think the treatment has been in increasing your hair growth/thickness? ([3]; response: Not very effective): 18.8% | Since the start of the study, how effective do you think the treatment has been in slowing down your hair loss? ([3]; response: Not very effective): 15.6% | Since the start of the study, how effective do you think the treatment has been in increasing your hair growth/thickness? ([3]; response: Somewhat effective): 71.9% | Since the start of the study, how effective do you think the treatment has been in slowing down your hair loss? ([3]; response: Somewhat effective): 53.1% | Because of the treatment I have received since the start of the study, the appearance of my hair is: ([3]; response: Stronger): 21.9% | Since the beginning of the study, I have noticed a decrease of the number of hairs lost in the shower. ([3]; response: Strongly Agree): 18.8% | Since the start of the study, I can see more hair in the areas where the serum was applied. ([3]; response: Strongly Agree): 12.5% | Since the beginning of the study, I have noticed a decrease of the number of hairs lost in the shower. ([3]; response: Strongly Disagree): 0% | Since the start of the study, I can see more hair in the areas where the serum was applied. ([3]; response: Strongly Disagree): 0% | Because of the treatment I have received since the start of the study, the appearance of my hair is: ([3]; response: Thicker): 18.8% | Because of the treatment I have received since the start of the study, the appearance of my hair is: ([3]; response: Thinner): 3.1% | Since the start of the study, how effective do you think the treatment has been in increasing your hair growth/thickness? ([3]; response: Very effective): 9.4% | Since the start of the study, how effective do you think the treatment has been in slowing down your hair loss? ([3]; response: Very effective): 28.1% | Because of the treatment I have received since the start of the study, the appearance of my hair is: ([3]; response: Weaker): 0% | Subjects with tight hairstyles who noticed less shedding ([3]; water-based formula 0.02% v/v every 2 days, 6 weeks, 32 female subjects): 28/32 (87%) | Adverse effects ([3]; water-based formula 0.02% v/v every 2 days, 6 weeks, 32 subjects completed): 0/32 (0%) | Percent Increase Proliferation of hFDPCs (%) [2]: B (B represents 20-40%) | genotoxic effects in SOS chromotest (normalized β-galactosidase activity) (bacteria): did not exhibit any genotoxic effects | functional stability (normalized follicle papilla cell proliferation after pre-treatment of the compound) [4]: functionally stable across physiologically-relevant pH and temperature ranges
